Measurements reported in patent US20050148553A1, “Use of tigecycline, alone, or in combination with rifampin to treat osteomyelitis and/or septic arthritis” (priority 2003, published 2005).
≈ marks a conversion by molar mass, not a printed value. Where “and” joins values, the source holds several entries; their conditions need not be identical. Equal values may be shown once.

How the values were obtained:
[1] = test system: methicillin-resistant Staphylococcus aureus; details: 14 mg/kg bid; cited from earlier work
[2] = Adverse events and weight variance in infected treated rabbits
Source text: All rabbits were monitored weekly for weight variance. […] The key for FIGS. 4A and B is as follows: Control=control group, no treatment; Vancomycin=subcutaneous vancomycin treated group; Vanco+Rifampin=subcutaneous vancomycin with oral rifampin treated group; Gar-936=subcutaneous Gar-936 treated group; Gar-936+Rifampin=subcutaneous Gar-936 with oral Rifampin treated group.

[3] = test system: methicillin-resistant S. aureus
Method: Preparation of the Infective Media: S. aureus was incubated overnight in Mueller Hinton Broth (Difco Laboratories, Detroit, Mich.) medium spiked with 40 μg/ml oxacillin, at 37° C. The bacterial concentration of the culture was adjusted to 10^7 CFU's/ml.
Rabbit Infection Procedure: New Zealand white rabbits (Ray Nicholl's Rabbitry, Lumberton, Tex.), eight to 12 weeks old and weighing 2.0 to 3.5 kg, were utilized for the study. After anesthesia was given, an 18-gauge needle was inserted percutaneously through the lateral aspect of the left tibial metaphysis into the intramedullary cavity. Next, 0.15 ml of 5% sodium morrhuate (American Regent Laboratories, Inc., Shirley, N.Y.), 0.1 ml of S. aureus (10^7 CFU/ml), and 0.2 ml of sterile, normal saline, 0.9%, were injected sequentially.
Group 1 (control group): infected but left untreated for the duration of the study. Group 2: rabbits were treated for 4 weeks with subcutaneous vancomycin at 30 mg/kg twice daily. Group 3: rabbits were treated for 4 weeks with subcutaneous vancomycin at 30 mg/kg twice daily plus oral rifampin at 40 mg/kg twice daily in 0.5% methylcellulose. Group 4: rabbits were treated for 4 weeks with subcutaneous tigecycline at 14 mg/kg twice daily. Group 5: rabbits were treated for 4 weeks with subcutaneous tigecycline at the same dose as in the rabbits in Group 4, plus oral rifampin at 40 mg/kg twice daily in 0.5% methylcellulose. […] Group 6: rabbits were treated for 1 week with subcutaneous tigecycline at the same dose as in Group 4, but were sacrificed 3 hours after administration of the last dose. At that time, blood and infected bone samples were collected and tigecycline concentration was determined. Groups 1 to 5 were left untreated for 2 weeks after treatment phase of the experiment and sacrificed at 8 weeks after infection.
Radiographs of bilateral tibias were taken at initiation of therapy (2 weeks after infection), at the end of antibiotic therapy (6 weeks after infection), and at sacrifice (8 weeks after infection). Radiographs were scored according to a visual scale (Table 1) by three investigators, each blinded to the treatment group, and the grades were averaged.
After sacrifice, gross cultures were performed for right and left tibias. Quantitative counts of S. aureus, in CFUs per gram, of left tibial bone and marrow were determined for all study groups.
Culture Preparation: The bone marrow and the intramedullary canal of bilateral tibias were swabbed with sterile cotton tip applicators for gross cultures analysis of left tibias and quality assurance checks of right tibias. The inoculated applicator was streaked onto blood plates and then placed into 5 ml of sterile TSB. The plates and tubes were then incubated at 37° C. for 24 hours and growth and/or turbidity was recorded.
The bone marrow was placed into a sterile, 50 ml centrifuge tube and weighed. The bone fragments were broken into 0.5 cm^2 chips, placed into a sterile, 50 ml centrifuge tube, and the final product weighed. Normal sterile saline, 0.9%, was added in a 3 to 1 ratio (3 ml saline/gram of bone or marrow) and the suspensions were vortexed for 2 minutes. Six ten-fold dilutions of each suspension were prepared with sterile, normal saline, 0.9%. Twenty-microliter samples of each dilution, including the initial suspension, was plated, in triplicate, onto blood agar plates and incubated at 37° C. for 24 hours. CFUs were counted at the greatest dilution for each tibia sample.

[4] = test system: vancomycin resistant E. faecium; details: cited from earlier work
[5] = Antibiotic levels in rabbit serum and bone by diffusion bioassay; type: in vivo, New Zealand white rabbits
Method: Normal NZW rabbit serum (Fisher Scientific) and normal, uninfected rabbit tibia bone were used to generate standard curves for tigecycline (Wyeth-Ayerst Research, Pearl River, N.Y.), vancomycin (Abbott Laboratories, Chicago, Ill.), and rifampin (Merrell Pharmaceuticals Inc. Kansas, Mo.). Bioassays were performed with each drug to generate the standard curves for antibiotic concentration in serum and/or tibial bone.
The organism used for the bioassay was Bacillus cereus ATCC11778. Serum standards were prepared using two-fold serial dilutions with either antibiotic to yield concentrations of 25 μg/ml to 0.20 μg/ml drug in Normal NZW rabbit serum. Bone eluate standards were prepared for tigecycline by thoroughly cleaning noninfected rabbit tibias with 70% ethanol in a sterilized fume hood. Each tibia was broken into small chips of approximately 0.5 cm^2 using a grinder. The chips were placed into a sterile, 50 ml conical centrifuge tube and weighed. One milliliter of sterile, 0.9% normal saline was added for each gram of bone chips. The solution was thoroughly vortexed for two minutes. The resulting bone eluate was allowed to shake at 180 rpm in a cold room at 4° C., for 12 hours. The samples were centrifuged at 4000 rpm for 3 minutes prior to assay, to pellet the chips.
The diameter of the zone of growth inhibition around each well was measured, in millimeters. A standard curve was generated for tigecycline concentration in both serum and bone eluate and for vancomycin in serum by plotting the known antibiotic concentration against its resulting zone of inhibition measurement. […]
Serum samples were stored at −70° C. until the bioassay was performed. […] The diameter of the zone of growth inhibition around each well was measured and concentrations of tigecycline were extrapolated from the standard curve.
Peak and trough levels of antibiotic were determined for Groups 2 and 4 at 1 hour (peak) and 12 hour (trough) after the initial antibiotic administration. Antibiotic concentrations were determined by means of a bioassay. […]

Mycobacterium abscessus = type: in vivo, human; details: vertebral osteomyelitis patient
Method: Debridement was accomplished after one year of infection with placement of hardware. […] The amikacin was later stopped due to renal damage. Linezolid and azithromycin were later added to the treatment regimen. The organism was determined to be resistant to moxifloxacin.
The patient presented later with a new vertebral osteomyelitis just above the site of the old infection. A biopsy was performed and it was determined that no additional debridement was needed. […] Tigecycline was administered up to MIC 0.25 micrograms/ml. The patient's white blood cell count was normal while hypogammaglobulinemia was present and lymphocytic function decreased. The patient had also been under treatment with IL-12, but IL-12 was held during antibiotic treatment.

[6] = test system: methicillin-resistant S. aureus; experiment: microbe, parasite or virus in culture; type: cell-based, Staphylococcus aureus; details: Staphylococcus aureus, MRSA
Method: The minimum inhibitory concentrations (MIC) of tigecycline, vancomycin and rifampin were determined using an antibiotic two-fold tube-dilution method. The minimum bactericidal concentrations were also determined. The limits of sensitivity of this method were 25 μg/ml to 0.20 μg/ml.

M. abcessus = experiment: Susceptibility/MIC of patient isolate, compassionate use study; type: cell-based, Mycobacterium abscessus
[7] = average grade, t=14 versus t=56 days
[8] = individual rabbits, left tibia, 8 weeks after infection

Which results are given for `CN(C)c1cc(NC(=O)CNC(C)(C)C)c(O)c2c1C[C@H]1C[C@H]3[C@H](N(C)C)C(O)=C(C(N)=O)C(=O)[C@@]3(O)C(O)=C1C2=O` [Tigecycline]?
efficacy compared with 40 mg/kg vancomycin [1]: more effective; symptoms of gastric dysfunction ([2]; approximately 1.0-1.5 weeks post-antibiotic initiation): mild to severe symptoms of gastric dysfunction; mean weight gain ([2]; infected rabbits after antibiotic treatment): -0.05 kg; rabbits that died before completion of treatment ([2]; infected rabbits, 4 weeks treatment): 5; dosage causing relevant morbidity and mortality ([2]; rabbit model, data not shown): higher than 14 mg/kg per day; radiographic improvement (grade) [3, 7]: 0.9+/−0.1; radiographic improvement (percent) [3, 7]: 40.9%; rabbits/samples positive for MRSA in bone ([3]; bone cultures at sacrifice): 1 out of 10 and one rabbit of 10; proportion of positive cultures in marrow ([3]; compared with 0.33 (5/15) in control group): 0; bacterial outcome in bone and marrow, in words ([3]; end of study, MRSA infected rabbits): lower colony forming units in bone and marrow; Counts (CFU/gm) Bone [3, 8]: 178.6 CFU/gm and 0 CFU/gm (9×); Counts (CFU/gm) Marrow [3, 8]: 0 CFU/gm; rabbits infected in bone marrow ([3]; marrow cultures at sacrifice): no infection; average radiographic grade versus control group ([3]; t=56 days, p<0.05): significantly lower; average bacterial concentration of the group ([3]; tibia bone): 20 CFU/gram bone; MIC [4]: 0.125 µg/mL (≈ 0.213 µM); concentration at 12 h ([5]; New Zealand white, rabbit, serum, subcutaneous, uninfected rabbits, 14 mg/kg twice daily, read-out: serum level at 12 hour (trough)): > 200 ng/mL; antibiotic serum levels (peaks and troughs) ([5]; infected rabbits, tigecycline 14 mg/kg, vancomycin 30 mg/kg twice daily): above minimum inhibitory concentrations; clinical outcome (Mycobacterium abscessus): doing well a year after the treatment; MBC ([6]; read-out: minimum bactericidal concentration (MBC)): 0.2 µg/mL (≈ 0.341 µM); MIC ([6]; read-out: minimum inhibitory concentration (MIC), MRSA study strain, inoculum 10^6 CFU/ml): < 0.2 µg/mL; susceptibility of the organism (M. abcessus; M. abscessus patient isolate): susceptible; MIC (M. abcessus; Mycobacteroides abscessus, M. abcessus from a human patient, read-out: minimum inhibitory concentration): 0.25 µg/mL
